Numbered stars: 1 amine (or outer) side, 2 acyl side, 3 side chain; on linkers, the order of the positions; unused ones are H or OH. Bridge positions count the residues as written; N and C are the ends. Square brackets hold non-standard residues; d marks the D form. Peptide text beside a SMILES is read from it. CO = O=C([*:1])[*:2]; Nlys = NCCCCNCC(=O)O
Experiments:
[1] = tested on: MyD88-dependent signaling; test: Library screen: TNFα production by U937 macrophage cells stimulated with PAM3Csk; format: cell-based, human; details: PAM3Csk overnight, peptide concentration estimated 2-4 μM
Protocol: FIG. 4. Screening results of the peptide library of 16 compounds. Human macrophage U937 cells were stimulated with PAM3csk overnight in the absence or presence of each of the cyclic peptides. Human TNFα levels in the supernatants were determined by ELISA. […].
The backbone cyclic library of 16 compounds synthesized in Example 3 was screened for inhibition of MyD88-dependent signaling through innate immune receptors employing the human macrophage cell line U937. […] The concentration of the cyclic peptides in the library was estimated to be 2-4 μM.

[2] = tested on: MyD88-dependent signaling; test: TNFα production by THP-1 derived macrophages stimulated with PAM3csk; format: cell-based, human; details: THP-1 macrophages, PAM3csk overnight
Protocol: FIG. 5. Human monocytic THP-1 cells were differentiated to macrophages and were stimulated with PAM3csk overnight in the absence or presence of the cyclic 4-carbon bridge peptide or 6-carbon bridge peptide. TNFα levels in the supernatants were determined by ELISA.
Both cyclic peptides were synthesized with the addition of a tryptophan group to the N-terminus to enable accurate quantification of the molecules.

[3] = tested on: T cells responding to the self-antigen MOG35-55; test: Cytokine response of draining lymph node cells of treated EAE mice to MOG35-55; format: in vivo; details: 4 mg/Kg three times per week until day 11; ex vivo restimulation
Protocol: FIGS. 16A and 16B. inhibition of IFNγ and IL-17 secretion in 4×4MyDI treated mice. C57BL/6 mice were immunized with MOG35-55/CFA and administered pertussis toxin on day zero and after 48 h. Groups of mice were treated with 4×4MyDI at 4 mg/kg from day zero, three times a week, and animals were sacrificed on day 11 after immunization. Control mice were treated with an equal volume of PBS using the same schedule of administration. Single cell suspensions from draining lymph nodes were stimulated with different concentrations of MOG35-55 peptide (SEQ ID NO: 4) for three days and supernatants were collected for analysis of cytokines by ELISA.
Of note, IFNγ and IL-17 are considered pro-inflammatory cytokines that are highly detrimental in the autoimmune process.

MyD88 dimerization = target: T1, MyD88 dimerization (Homo sapiens, UniProt Q99836); test: Co-immunoprecipitation of Flag-MyD88 with HA-MyD88 in HEK293 cells; format: cell-based; details: HEK293, IL-1 stimulation; 4×4MyDI at 20, 2, 0.2 μM; Myr-4×4MyDI at 0.2 or 2000 nM
T1 construct: constructs encoding HA-tagged full length MyD88 and Flag-tagged full length MyD88; expressed in transfected cells; host or cells: HEK293
T1 sequence (Q99836 whole entry): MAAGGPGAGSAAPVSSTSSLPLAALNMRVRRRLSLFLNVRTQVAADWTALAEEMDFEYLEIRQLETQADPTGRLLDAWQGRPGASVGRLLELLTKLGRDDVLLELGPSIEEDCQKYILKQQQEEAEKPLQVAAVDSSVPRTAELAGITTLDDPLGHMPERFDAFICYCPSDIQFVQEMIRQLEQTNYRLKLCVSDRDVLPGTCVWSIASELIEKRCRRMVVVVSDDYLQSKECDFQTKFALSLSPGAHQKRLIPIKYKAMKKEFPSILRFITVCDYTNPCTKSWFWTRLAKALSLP
Protocol: FIG. 10. 4×4MyDI blocks MyD88 dimerization. HEK293 cells were transfected with two plasmids, one encoding HA-MyD88 and the other encoding FLAG-MyD88 and after 48 hours the cells were either untreated (cont) or treated with 20 μM of the linear MyDI peptide, the scrambled version of the linear MyDI peptide (SEQ ID NO: 5,), or the 4×4MyDI at 20, 2, or 0.2 μM. After 3 h of treatment, cells were stimulated with recombinant human IL-1 (20 ng/ml) for 30 min and then lysed. Whole cell lysates (WCL) were immunoprecipitated with anti-HA beads (Thermo-Scientific) for 30 min and proteins were eluted with glycine Ph 2.0, neutralized, and loaded on an acrylamide gel for analysis. Proteins were transferred to nitrocellulose and the amount of Flag-MyD88 that co-precipitated with HA-MyD88 was detected by immunoblotting (IB) with anti-Flag antibody.
FIGS. 14A and 14B. […] Proteins were transferred to nitrocellulose and the amount of FLAG-MyD88 that co-precipitated with HA-MyD88 was detected by immunoblotting (IB) with anti-FLAG antibody. […] Percent inhibition of co-immunoprecipitation was calculated by comparing densitometry of bands in the treated lanes to control. […]
TLR and IL-1 receptor signaling proceeds through a multimeric protein signaling complex (the “Myddosome”) that is initiated by MyD88 homodimerization. […] Immunoprecipitated protein was eluted and analyzed by immunoblot using an antibody to Flag. […]

[4] = Parallel Artificial Membrane Permeability Assay (PAMPA); format: in vitro ADME; details: in comparison to metoprolol
From the text: FIG. 12. Papp of 4×4MyDI in the PAMPA model in comparison to metoprolol.

CC(C)C[C@@H]1NC(=O)[C@H](C(C)C)NC(=O)[C@H](CC(=O)O)NC(=O)[C@H](CCCNC(=N)N)NC(=O)CN(C(=O)[C@@H](N)Cc2c[nH]c3ccccc23)CCCCNC(=O)NCCCCN(CC(=O)NCC(=O)N[C@H](C(N)=O)[C@@H](C)O)C1=O [4×4MyDI] (H-W[Nlys]RDVL[Nlys]GT-NH2; linker 2-7 via CO; N-terminus assumed)
MyD88 inhibitory activity (reduction in TNFα production) [1]: intermediate activity
inhibition of TNFα production [2]: outperformed the 6-carbon bridge peptide
IFNγ produced by T cells responding to MOG35-55 [3]: complete inhibition
IL-17 produced by T cells responding to MOG35-55 [3]: complete inhibition
MyD88 dimerization (Flag-MyD88 co-precipitated with HA-MyD88) (MyD88 dimerization): dramatically reduces the dimerization
passive diffusion through a lipid layer (Papp PAMPA) [4]: does not diffuse well through a lipid layer

From patent US10662225B2, “Backbone cyclized inhibitory peptides of myeloid differentiation factor 88 (MyD88)” (Yissum Research Development Company of the Hebrew …, priority 2016, dated 2020)
